Laboratory results from PubChem BioAssay AID1963446 (Molecular Pharmacology Branch, DTP, NCI, 2024).

System: 993429-296-R-J1-PDC complex spheroid growth, percent test/control
Assay: Anticancer human tumor 993429-296-R-J1-PDC patient-derived uterine sarcoma cell line growth inhibition [Asc]
Settings: for IC50: curve of first compound; for viability, T/C: stronger effect = lower value
Method in brief: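 Stromal components (HUVEC and hMSC) are co-assembled with the cancer cells into multicellular spheroids. Drugs are then added singly or paired, at concentrations falling by half-log increments from a clinically achievable maximum, capped at 10 microM without known Cmax.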

[1] = second compound 0.03 µM, first compound 0.00316 µM
[2] = second compound 0.03 µM, first compound 0.01 µM
[3] = second compound 0.03 µM, first compound 0.0316 µM
[4] = second compound 0.03 µM, first compound 0.1 µM
[5] = second compound 0.03 µM, first compound 0.316 µM
[6] = second compound 0.03 µM, first compound 1 µM
[7] = second compound 0.0949 µM, first compound 0.00316 µM
[8] = second compound 0.0949 µM, first compound 0.01 µM
[9] = second compound 0.0949 µM, first compound 0.0316 µM
[10] = second compound 0.0949 µM, first compound 0.1 µM
[11] = second compound 0.0949 µM, first compound 0.316 µM
[12] = second compound 0.0949 µM, first compound 1 µM
[13] = second compound 0.3 µM, first compound 0.00316 µM
[14] = second compound 0.3 µM, first compound 0.01 µM
[15] = second compound 0.3 µM, first compound 0.0316 µM
[16] = second compound 0.3 µM, first compound 0.1 µM
[17] = second compound 0.3 µM, first compound 0.316 µM
[18] = second compound 0.3 µM, first compound 1 µM
[19] = second compound 0.949 µM, first compound 0.00316 µM
[20] = second compound 0.949 µM, first compound 0.01 µM
[21] = second compound 0.949 µM, first compound 0.0316 µM
[22] = second compound 0.949 µM, first compound 0.1 µM
[23] = second compound 0.949 µM, first compound 0.316 µM
[24] = second compound 0.949 µM, first compound 1 µM
[25] = second compound 3 µM, first compound 0.00316 µM
[26] = second compound 3 µM, first compound 0.01 µM
[27] = second compound 3 µM, first compound 0.0316 µM
[28] = second compound 3 µM, first compound 0.1 µM
[29] = second compound 3 µM, first compound 0.316 µM
[30] = second compound 3 µM, first compound 1 µM
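Also: spheroids exposed to compounds for seven days.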

With `O=C(c1ccc(F)c(F)c1Nc1ccc(I)cc1F)N1CC(O)([C@@H]2CCCCN2)C1` + CCN1C(C(=O)NC23CCC(C(=O)O)(CC2)CC3)C(c2cccc(Cl)c2F)C2(C(=O)Nc3cc(Cl)ccc32)C12CCCCC2 the IC50 (second compound 0.03 µM) was 42.6 nM, the IC50 (second compound 0.0949 µM) was 64.6 nM and the IC50 (second compound 0.3 µM) was 42.4 nM. For the same compound, the IC50 (second compound 0.949 µM) was 50.1 nM, the IC50 (second compound 3 µM) was 19.3 nM and the viability, T/C [1] was 98%. For the same compound, the viability, T/C [2] was 72.2%, the viability, T/C [3] was 58% and the viability, T/C [4] was 38.7%. The viability, T/C [5] was 8.47%, the viability, T/C [6] was 1.77% and the viability, T/C [7] was 80.2%. The viability, T/C [8] was 87.7%, the viability, T/C [9] was 66% and the viability, T/C [10] was 39.8%. The viability, T/C [11] was 8.87%, the viability, T/C [12] was 1.19% and the viability, T/C [13] was 85.8%. The viability, T/C [14] was 74.7%, the viability, T/C [15] was 61.1% and the viability, T/C [16] was 22.3%. The viability, T/C [17] was 8.15%, the viability, T/C [18] was 2.9% and the viability, T/C [19] was 86.8%. It also gave a viability, T/C [20] of 67.3%, a viability, T/C [21] of 66.3% and a viability, T/C [22] of 30.9%. It also gave a viability, T/C [23] of 8.19%, a viability, T/C [24] of 2.6% and a viability, T/C [25] of 74.9%. For the same compound, the viability, T/C [26] was 64.4%, the viability, T/C [27] was 38.3% and the viability, T/C [28] was 20.6%. The viability, T/C [29] was 5.52% and the viability, T/C [30] was 0.67%.
`NC(=O)C(=Cn1cnc(-c2cc(C(F)(F)F)cc(C(F)(F)F)c2)n1)c1cncnc1` + Cc1c(S(C)(=O)=O)c(-c2cc(F)cc(N3CCN(c4ccc(NS(=O)(=O)c5ccc(NC(CCN6CCC(C(=O)OCCCP(=O)(O)O)CC6)CSc6ccccc6)c(S(=O)(=O)C(F)(F)F)c5)cc4)CC3)c2)c(-c2ccc(Cl)cc2)n1C(C)C was tested, and the IC50 (second compound 0.1 µM) was 7.94 nM, the IC50 (second compound 0.316 µM) was 5.62 nM and the IC50 (second compound 1 µM) was less than 0.949 nM. For the same compound, the IC50 (second compound 3.16 µM) was 0.989 nM, the IC50 (second compound 10 µM) was 9.35 nM and the viability, T/C (second compound 0.1 µM, first compound 0.000949 µM) was 79.2%. It also gave a viability, T/C (second compound 0.1 µM, first compound 0.003 µM) of 63%, a viability, T/C (second compound 0.1 µM, first compound 0.00949 µM) of 50.8% and a viability, T/C (second compound 0.1 µM, first compound 0.03 µM) of 17.5%. For the same compound, the viability, T/C (second compound 0.1 µM, first compound 0.0949 µM) was 5.75%, the viability, T/C (second compound 0.1 µM, first compound 0.3 µM) was 1.24% and the viability, T/C (second compound 0.316 µM, first compound 0.000949 µM) was 67%. For the same compound, the viability, T/C (second compound 0.316 µM, first compound 0.003 µM) was 59.9%, the viability, T/C (second compound 0.316 µM, first compound 0.00949 µM) was 41.4% and the viability, T/C (second compound 0.316 µM, first compound 0.03 µM) was 13.1%. It also gave a viability, T/C (second compound 0.316 µM, first compound 0.0949 µM) of 2.18%, a viability, T/C (second compound 0.316 µM, first compound 0.3 µM) of 0.54% and a viability, T/C (second compound 1 µM, first compound 0.000949 µM) of 48.8%. For the same compound, the viability, T/C (second compound 1 µM, first compound 0.003 µM) was 48.6%, the viability, T/C (second compound 1 µM, first compound 0.00949 µM) was 32.4% and the viability, T/C (second compound 1 µM, first compound 0.03 µM) was 9.81%. The viability, T/C (second compound 1 µM, first compound 0.0949 µM) was 1.61%, the viability, T/C (second compound 1 µM, first compound 0.3 µM) was 0.15% and the viability, T/C (second compound 3.16 µM, first compound 0.000949 µM) was 50.8%. For the same compound, the viability, T/C (second compound 3.16 µM, first compound 0.003 µM) was 35.8%, the viability, T/C (second compound 3.16 µM, first compound 0.00949 µM) was 24.6% and the viability, T/C (second compound 3.16 µM, first compound 0.03 µM) was 11.9%. It also gave a viability, T/C (second compound 3.16 µM, first compound 0.0949 µM) of 2.12%, a viability, T/C (second compound 3.16 µM, first compound 0.3 µM) of 0.26% and a viability, T/C (second compound 10 µM, first compound 0.000949 µM) of 75.6%. For the same compound, the viability, T/C (second compound 10 µM, first compound 0.003 µM) was 71.1%, the viability, T/C (second compound 10 µM, first compound 0.00949 µM) was 49.9% and the viability, T/C (second compound 10 µM, first compound 0.03 µM) was 13.7%. For the same compound, the viability, T/C (second compound 10 µM, first compound 0.0949 µM) was 1.63% and the viability, T/C (second compound 10 µM, first compound 0.3 µM) was 0.26%.
For `CNC(C)C(=O)NC1CN(S(=O)(=O)c2cccc(S(=O)(=O)N3CCC4CCC(C(=O)NC(c5ccccc5)c5ccccc5)N4C(=O)C(NC(=O)C(C)NC)C3)c2)CCC2CCC(C(=O)NC(c3ccccc3)c3ccccc3)N2C1=O` (stereo not given) + CCN1C(C(=O)NC23CCC(C(=O)O)(CC2)CC3)C(c2cccc(Cl)c2F)C2(C(=O)Nc3cc(Cl)ccc32)C12CCCCC2, the IC50 (second compound 0.03 µM) was greater than 1000 nM, the IC50 (second compound 0.0949 µM) was greater than 1000 nM and the IC50 (second compound 0.3 µM) was greater than 1000 nM. For the same compound, the IC50 (second compound 0.949 µM) was greater than 1000 nM, the IC50 (second compound 3 µM) was 287 nM and the viability, T/C [1] was 71.4%. It also gave a viability, T/C [2] of 62.7%, a viability, T/C [3] of 57.5% and a viability, T/C [4] of 57%. For the same compound, the viability, T/C [5] was 58%, the viability, T/C [6] was 51.7% and the viability, T/C [7] was 61.2%. It also gave a viability, T/C [8] of 69.8%, a viability, T/C [9] of 65% and a viability, T/C [10] of 68.7%. The viability, T/C [11] was 53.7%, the viability, T/C [12] was 57.3% and the viability, T/C [13] was 64.9%. The viability, T/C [14] was 79.5%, the viability, T/C [15] was 66.3% and the viability, T/C [16] was 53.9%. It also gave a viability, T/C [17] of 62.6%, a viability, T/C [18] of 59.4% and a viability, T/C [19] of 77.3%. The viability, T/C [20] was 64.3%, the viability, T/C [21] was 62.7% and the viability, T/C [22] was 65.2%. The viability, T/C [23] was 55.9%, the viability, T/C [24] was 61.1% and the viability, T/C [25] was 77.9%. For the same compound, the viability, T/C [26] was 66.8%, the viability, T/C [27] was 59.2% and the viability, T/C [28] was 48.3%. The viability, T/C [29] was 53.5% and the viability, T/C [30] was 47.7%.
Work on `Cn1ncnc1[C@H]1c2n[nH]c(=O)c3cc(F)cc(c23)N[C@@H]1c1ccc(F)cc1` + CNC(C)C(=O)NC1CN(S(=O)(=O)c2cccc(S(=O)(=O)N3CCC4CCC(C(=O)NC(c5ccccc5)c5ccccc5)N4C(=O)C(NC(=O)C(C)NC)C3)c2)CCC2CCC(C(=O)NC(c3ccccc3)c3ccccc3)N2C1=O yielded an IC50 (second compound 0.01 µM) of 4.14 nM, an IC50 (second compound 0.0316 µM) of 7.99 nM and an IC50 (second compound 0.1 µM) of 3.94 nM. For the same compound, the IC50 (second compound 0.316 µM) was 5.81 nM, the IC50 (second compound 1 µM) was less than 0.316 nM and the viability, T/C (second compound 0.01 µM, first compound 0.000316 µM) was 75.9%. The viability, T/C (second compound 0.01 µM, first compound 0.001 µM) was 54.9%, the viability, T/C (second compound 0.01 µM, first compound 0.00316 µM) was 52.7% and the viability, T/C (second compound 0.01 µM, first compound 0.01 µM) was 47%. For the same compound, the viability, T/C (second compound 0.01 µM, first compound 0.0316 µM) was 32.6%, the viability, T/C (second compound 0.01 µM, first compound 0.1 µM) was 21.3% and the viability, T/C (second compound 0.0316 µM, first compound 0.000316 µM) was 60.4%. It also gave a viability, T/C (second compound 0.0316 µM, first compound 0.001 µM) of 69.1%, a viability, T/C (second compound 0.0316 µM, first compound 0.00316 µM) of 54.1% and a viability, T/C (second compound 0.0316 µM, first compound 0.01 µM) of 48.9%. For the same compound, the viability, T/C (second compound 0.0316 µM, first compound 0.0316 µM) was 35.9%, the viability, T/C (second compound 0.0316 µM, first compound 0.1 µM) was 26.5% and the viability, T/C (second compound 0.1 µM, first compound 0.000316 µM) was 52%. The viability, T/C (second compound 0.1 µM, first compound 0.001 µM) was 52.7%, the viability, T/C (second compound 0.1 µM, first compound 0.00316 µM) was 51.2% and the viability, T/C (second compound 0.1 µM, first compound 0.01 µM) was 45.3%. It also gave a viability, T/C (second compound 0.1 µM, first compound 0.0316 µM) of 32.5%, a viability, T/C (second compound 0.1 µM, first compound 0.1 µM) of 23.2% and a viability, T/C (second compound 0.316 µM, first compound 0.000316 µM) of 56.5%. For the same compound, the viability, T/C (second compound 0.316 µM, first compound 0.001 µM) was 60.7%, the viability, T/C (second compound 0.316 µM, first compound 0.00316 µM) was 54.8% and the viability, T/C (second compound 0.316 µM, first compound 0.01 µM) was 44.4%. The viability, T/C (second compound 0.316 µM, first compound 0.0316 µM) was 17.5%, the viability, T/C (second compound 0.316 µM, first compound 0.1 µM) was 13.7% and the viability, T/C (second compound 1 µM, first compound 0.000316 µM) was 50.6%. It also gave a viability, T/C (second compound 1 µM, first compound 0.001 µM) of 45.7%, a viability, T/C (second compound 1 µM, first compound 0.00316 µM) of 46.9% and a viability, T/C (second compound 1 µM, first compound 0.01 µM) of 39.4%. The viability, T/C (second compound 1 µM, first compound 0.0316 µM) was 21.6% and the viability, T/C (second compound 1 µM, first compound 0.1 µM) was 10.9%.
